# From patent US11046680B1, “Heteroaryl-substituted triazoles as APJ receptor agonists” (priority 2016, dated 2021)
# Molecular target: human APJ receptor (Homo sapiens (Human), UniProt P35414)
# Experiment: biochemical
# Format: biochemical
# Settings: [35S]GTPγS binding, CHO membranes expressing human APJ receptor; read-out: Activity hAPJ SPA EC50 IP
# Summary of the method: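 Membranes of a stable CHO line carrying human APJ (pFLAG-CMV-3) were used in a GTPγS binding format; buffer GDP, MgCl2 and NaCl were optimized, and plates were read after 90 min at RT.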
# human APJ receptor, sequence (P35414 whole entry): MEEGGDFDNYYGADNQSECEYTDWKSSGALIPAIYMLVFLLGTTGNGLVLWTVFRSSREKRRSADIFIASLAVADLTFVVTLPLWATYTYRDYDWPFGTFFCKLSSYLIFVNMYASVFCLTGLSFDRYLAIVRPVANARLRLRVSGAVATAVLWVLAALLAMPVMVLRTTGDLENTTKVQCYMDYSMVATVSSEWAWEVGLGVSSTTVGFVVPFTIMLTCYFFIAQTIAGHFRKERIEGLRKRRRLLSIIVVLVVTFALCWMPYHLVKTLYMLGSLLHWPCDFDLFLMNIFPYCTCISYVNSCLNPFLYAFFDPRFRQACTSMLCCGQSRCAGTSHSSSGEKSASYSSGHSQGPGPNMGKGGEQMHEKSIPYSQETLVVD
row,Molecule,EC50 [nM]
1,"COc1cccc(OC)c1-n1c(NS(=O)(=O)[C@H](C)Cc2ncc(F)cn2)nnc1-c1nc(C)cs1 (single isomer, unassigned) [Example 101.0, (R)-N-(4-(2,6-Dimethoxyphenyl)-5-(4-methylthiazol-2-yl)-4H-1,2,4-triazol-3-yl)-1-(5-fluoropyrimidin-2-yl)propane-2-sulfonamide or (S)-N-(4-(2,6-dimethoxyphenyl)-5-(4-methylthiazol-2-yl)-4H-1,2,4-triazol-3-yl)-1-(5-fluoropyrimidin-2-yl)propane-2-sulfonamide]",0.7
2,"COc1cccc(OC)c1-n1c(NS(=O)(=O)[C@@H](C)[C@H](OC)c2ncc(Cl)cn2)nnc1-c1noc(C)c1C [Example 515.0, (1R,2S)-1-(5-chloropyrimidin-2-yl)-N-(4-(2,6-dimethoxyphenyl)-5-(4,5-dimethylisoxazol-3-yl)-4H-1,2,4-triazol-3-yl)-1-methoxypropane-2-sulfonamide]",0.93
3,"CNC(=O)n1ccc(-c2nnc(NS(=O)(=O)[C@@H](C)Cc3ncc(F)cn3)n2-c2c(OC)cccc2OC)n1 (racemic) [Example 72.0, (R)-3-(4-(2,6-dimethoxyphenyl)-5-(2-(5-fluoropyrimidin-2-yl)-1-methylethylsulfonamido)-4H-1,2,4-triazol-3-yl)-N-methyl-1H-pyrazole-1-carboxamide (S)-3-(4-(2,6-dimethoxyphenyl)-5-(2-(5-fluoropyrimidin-2-yl)-1-methylethylsulfonamido)-4H-1,2,4-triazol-3-yl)-N-methyl-1H-pyrazole-1-carboxamide]",41
4,"COc1cccc(OC)c1-n1c(NS(=O)(=O)[C@@H](C)[C@H](OC)c2ncc(C)cn2)nnc1-c1coc(C)n1 [Example 339.0, (1R,2S)-N-(4-(2,6-dimethoxyphenyl)-5-(2-methyl-1,3-oxazol-4-yl)-4H-1,2,4-triazol-3-yl)-1-methoxy-1-(5-methyl-2-pyrimidinyl)-2-propanesulfonamide]",2.1
5,"COc1cccc(OC)c1-n1c(NS(=O)(=O)[C@@H](C)[C@H](C)c2ncc(C#N)cn2)nnc1-c1ccn(C(F)F)n1 [Example 224.0, (2S,3R)-3-(5-cyano-2-pyrimidinyl)-N-(5-(1-(difluoromethyl)-1H-pyrazol-3-yl)-4-(2,6-dimethoxyphenyl)-4H-1,2,4-triazol-3-yl)-2-butanesulfonamide]",0.41
6,"COCC1(n2c(NS(=O)(=O)[C@@H](C)[C@H](OC)c3ncc(Cl)cn3)nnc2-c2n[nH]c3c2CCCC3)CC1 [Example 491.0, (1R,2S)-1-(5-chloropyrimidin-2-yl)-1-methoxy-N-(4-(1-(methoxymethyl)cyclopropyl)-5-(4,5,6,7-tetrahydro-1H-indazol-3-yl)-4H-1,2,4-triazol-3-yl)propane-2-sulfonamide]",15
7,"(1R,2S)-N-(4-(2,6-dimethoxyphenyl)-5-(1-methyl-1H-pyrazol-3-yl)-4H-1,2,4-triazol-3-yl)-1-(5-fluoro-2-pyridinyl)-1-hydroxy-2-propanesulfonamide and (1S,2R)-N-(4-(2,6-dimethoxyphenyl)-5-(1-methyl-1H-pyrazol-3-yl)-4H-1,2,4-triazol-3-yl)-1-(5-fluoro-2-pyridinyl)-1-hydroxy-2-propanesulfonamide [Example 24.0]",0.18
8,"COc1cccc(OC)c1-n1c(NS(=O)(=O)[C@H](C)Cc2ncc(F)cn2)nnc1-c1ncccn1 (single isomer, unassigned) [Example 59.0, (R)-N-(4-(2,6-dimethoxyphenyl)-5-(pyrimidin-2-yl)-4H-1,2,4-triazol-3-yl)-1-(5-fluoropyrimidin-2-yl)propane-2-sulfonamide or (S)-N-(4-(2,6-dimethoxyphenyl)-5-(pyrimidin-2-yl)-4H-1,2,4-triazol-3-yl)-1-(5-fluoropyrimidin-2-yl)propane-2-sulfonamide]",110
